Results: US10328075B2, “Method of treatment and compounds for use therein” (Baker Heart and Diabetes Institute, priority 2015, dated 2019)

Assays:
hFPR1 [1] = molecular target: T1, hFPR1 (Homo sapiens, UniProt P21462); assay: ERK1/2 phosphorylation (AlphaScreen SureFire) in hFPR1-FlpIn-CHO cells; format: cell-based
T1 construct: expressed in transfected cells
T1 sequence (P21462 1-350): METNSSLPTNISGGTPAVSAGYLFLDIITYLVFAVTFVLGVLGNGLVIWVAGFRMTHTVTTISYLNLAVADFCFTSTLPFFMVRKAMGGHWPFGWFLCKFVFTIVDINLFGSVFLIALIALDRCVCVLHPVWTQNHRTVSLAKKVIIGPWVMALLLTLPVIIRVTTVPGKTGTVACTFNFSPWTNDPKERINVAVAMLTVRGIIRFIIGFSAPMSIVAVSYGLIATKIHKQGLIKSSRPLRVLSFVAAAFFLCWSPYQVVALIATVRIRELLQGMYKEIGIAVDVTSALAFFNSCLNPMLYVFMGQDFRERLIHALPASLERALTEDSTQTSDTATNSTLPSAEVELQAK
Source text: (§1) cDNDA construct and generation of stable cell lines: cDNA in pcDNA3.1^+ encoding the human formyl peptide receptors (FPR) subtypes, hFPR1, hFPR2 and hFPR3 was obtained from Invitrogen. The sequences for 3 hFPR receptors were amplified by PCR and cloned into the Gateway entry vector, pDONR202™, using the BP clonase enzyme mix, according to the manufactures' instructions (Invitrogen Inc, Carlsbad, Calif., USA). All hFPR receptors constructs in pDONR201™ were subsequently transfected into the pEF5/FRT/V5/dest vector using the LR clonase enzyme mix (Invitrogen). Receptor constructs (pEF5/FRT/V5/dest) were used to transfect FIp-In CHO cells as described previously (Valant C et al., PNAS, 2014). Cells were selected using 500 μg/mL hydromycin to generate cell lines stably expressing each receptor construct. Cells were maintained and cultured in high glucose DMEM supplemented with 10% FBS, 16 mM HEPES and 500 μg/mL hydromycin at 37° C. under a humidified atmosphere containing 5% CO2.
(§2) In the various assays described below, cells were plated into 96-well transparent cell culture plates at 4×10^4 cells per well, cultured overnight in serum-free media at 37° C. in 5% CO2.
Measurement of extracellular signal regulated kinase 1 and 2 phosphorylation (pERK1/2): Initial ERK1/2 phosphorylation at Thr202/Tyr204 time-course experiments were performed to determine the time at which ERK1/2 phosphorylation was maximal after stimulation by each agonist. Cells were seeded onto transparent 96-well cell culture plates at 4×10^4 cells per well. After 6 h, cells were washed once with PBS, and then incubated in serum-free DMEM overnight, to allow FBS-stimulated phosphorylated ERK1/2 levels to subside. […] 10% (v/v) FBS was used as a positive control, with vehicle controls also included. The reaction was terminated by removal of study drugs and lysis of cells with 100 μL of SureFire lysis buffer (TGR Biosciences). Cell were lysed in SureFire lysis buffer and transferred to 384-well opaque proxiplates. Under low-light conditions, a 1:120 (v:v) dilution of AlphaScreen beads (both acceptor and donor):Surefire reaction buffer was prepared, which was mixed with the activation buffer in a ratio of 6:1 (v:v), respectively. Plates were incubated in the dark at 37° C. for 1 h before the fluorescence signal was measured by a Fusion-α plate reader (PerkinElmer Life and Analytical Sciences, Foster city, CA, USA) with standard AlphaScreen settings. Data were normalized to the maximal response elicited by 10% (v/v) FBS at the same time point.
Receptor mediated pERK1/2 levels were determined using the AlphaScreen™ ERK1/2 SureFire™ kit, as described previously (Keov, P et al., 2014). For all experiments, 10% FBS was used as internal positive control to stimulate pERK1/2, and which the maximum responses were used for normalization of data, whilst vehicle was used as negative control.
(§3) Data analysis: All data were analysed using GraphPad Prism 6.0 (GraphPad Software, San Deigo, Calif., USA). Where appropriate, concentration-response curves were fitted to derive the maximal agonist effect (Emax), and the ligand potency estimate (pEC50), where Emax is the maximal possible response of the system (not the agonist), basal is the basal level of response in the absence of agonist, and pEC50 is the negative logarithm of the agonist concentration that gives a response halfway between Emax and basal.
In the present study, FIp-IN CHO cells and Gateway plasmid were obtained from Invitrogen Inc (Carlsbad, Calif., USA). The sequences for all 3 known human FPRs (hFPR1, hFPR2 and hFPR3) were amplified by PCR and cloned into the Gateway entry vector, pDONR202TM, using the BP clonase enzyme mix, according to the manufacturers' instructions. The hFPR pDONR201TM constructs were subsequently transfected into the pEF5/FRT/V5/dest vector using the LR clonase enzyme mix (Invitrogen).

hFPR1 [2] = molecular target: T1, hFPR1; assay: [Ca2+]i mobilization in FlpIn-CHO cells stably expressing hFPR1; format: cell-based; design: Calcium Rmax: unit not given here
Source text: as §1, §2
Intracellular calcium mobilization: Intracellular calcium mobilization was assayed as described previously (Keov, P et al., 2014). Briefly, cells were washed once using HEPES buffered saline (HBS) solution [150 mM NaCl, 2.2 mM CaCl2, 2.6 mM KCl, 1.2 mM MgCl2, 10 mM HEPEs, 10 mM D-Glucose, 0.5% (w/v) bovine serum albumin (BSA) and 4 mM probenecid] at pH 7.4, then treated with Fluo-4-AM (1 μM, in HBS/BSA/probenecid) for 60 min at 37° C. in 5% CO2 in the dark. Cells were then further washed and placed in HBS/BSA/probenecid solution for ligation addition and assay using the FLEXstation 3 plate reader (Molecular Devices, Sunnyvale, Calif.). For all experiments, peak change in fluorescence signal was normalized to the cellular response to 100 μM ATP, which was used as an internal positive control.
as §3
In the present study, FIp-IN CHO cells and Gateway plasmid were obtained from Invitrogen Inc (Carlsbad, Calif., USA). The sequences for all 3 known human FPRs (hFPR1, hFPR2 and hFPR3) were amplified by PCR and cloned into the Gateway entry vector, pDONR202TM, using the BP clonase enzyme mix, according to the manufacturers' instructions. The hFPR pDONR201TM constructs were subsequently transfected into the pEF5/FRT/V5/dest vector using the LR clonase enzyme mix (Invitrogen). Receptor constructs (pEF5/FRT/V5/dest) were used to transfect FIp-IN CHO cells, as described previously (Valant et al. 2014). Cells were selected using 500 μg/mL hydromycin to generate cell lines stably expressing each human receptor construct. Cells were maintained and cultured in high glucose Dulbecco's modified eagle medium (DMEM) supplemented with 10% fetal bovine serum (FBS, from JRH Biosciences, Lenexa, Kans., USA) and 500 μg/mL hydromycin B (Invitrogen Inc) at 37° C. under a humidified atmosphere containing 5% CO2. Cell were plated into 96-well transparent cell culture plates at 4×10^4 cells per well, cultured overnight in serum-free media at 37° C. in 5% CO2.
(ii) Intracellular Ca2+ mobilization: Intracellular Ca2+ mobilization was determined in stably-transfected recombinant hFPR CHO cells, as described previously (Valant et al. 2014).

hFPR1 [3] = molecular target: T1, hFPR1; assay: Quantification of biased agonism (operational model) at hFPR1 in CHO cells; format: cell-based; settings: Table 9
Source text: To quantify biased agonism mediated by each agonist across the various pathways ([Ca^2+], mobilization, pERK1/2, Akt1/2/3 and inhibition of cAMP accumulation), agonist concentration-response curves were refitted using the operation model normalized to the transduction ratio of a reference agonist (in this case, BIDI-002) as described previously (Stewart G D et al., 2009). Under these conditions, if the test agonist and the reference agonist activate the two pathways through a common receptor conformation, the log [bias factor] should be 0.0 (or bias factor different from 1.0), irrespective of differences in response amplification between pathways. In contrast, significant deviation of log [bias factor] from 0.0 (or bias factor different from 1.0) indicates the involvement of distinct conformations for the different agonists. All affinities, potencies, efficacies, and cooperativity parameters were estimated as logarithms (Christopoulos, 1998). Results are expressed as means±S.E. unless otherwise stated. Statistical analyses were by Student's t test, or one-way ANOVA followed by Dunnett's Comparison or Tukey's post-hoc test, as appropriate. Values of p<0.05 were considered statistically significant.
A “transduction ratio” is firstly derived for each response (τ/KA, where τ represents efficacy, and KA affinity, of the agonist for each GPCR conformational state), extracted from each concentration-response curve. “Bias factors” (ΔΔ(τ/KA)) were then calculated by normalizing the transduction ratio to a reference ligand (in this case, Cmpd43) and reference pathway, which here was Akt1/2/3(Thr308) phosphorylation. Lastly, bias factors were plotted on a ‘web of bias’ to visualize the potential for biased agonism. […] Under these conditions, if the test agonist and the reference agonist activate the two pathways through a common receptor conformation, the log [bias factor] should be 0.0 (i.e. the bias factor 1.0), irrespective of differences in response amplification between pathways. In contrast, significant deviation of log [bias factor] away from 0.0 (i.e. where the bias factor is different to 1.0) indicates the involvement of distinct conformations for the different agonists. All affinities, potencies, efficacies, and cooperativity parameters were estimated as logarithms (Kenakin et al. 2012).
Five signaling pathways were examined, namely pERK1/2-phosphorylation, Akt1/2/3(Ser473)-phosphorylation, Akt1(Thr308)-phosphorylation, increases in Ca2+i and inhibition of forskolin-induced cAMP accumulation. An operational model of agonism was fitted to each concentration-response curve to estimate a transduction ratio (τ/KA) for each agonist, at each pathway assessed, as described (FIG. 21B) (Kenakin et al. 2012). Transduction ratios were normalized to a reference agonist (Cmpd43) and a reference pathway (Akt1/2/3(Thr308)-phosphorylation), generating bias factors and therefore allowing quantitative cross-pathway comparison for each agonist.

[4] = Plasma levels and pharmacokinetics in mice; format: in vivo, mouse; settings: mouse, in vivo; Table 9; mice
[5] = Table 10, receptor not given, values of 10394/10396 equal the hFPR1 values of Table 9
[6] = Table 10, receptor not given, ND = Not detectable
[7] = Table 10, receptor not given, values of 10394/10396 equal the hFPR1 values of Table 9, read-out: ERK pEC50 (converted)
[8] = Table 10, receptor not given, ND = Not detectable, read-out: Calcium pEC50 (converted)

| SMILES | ERK Rmax (hFPR1 [1]; Table 10, receptor not given) | ERK pEC50 (hFPR1 [1]; [5]) | Calcium Rmax (hFPR1 [2]; [6]) | EC50 (hFPR1 [1]; [7]) | further results |
| --- | --- | --- | --- | --- | --- |
| COc1cccc(Cc2cc(C)nn(C(C)C(=O)Nc3ccc(Cl)cc3)c2=O)c1 (stereo not shown) [MIPS008744] | 95 ± 5 | 5.47 ± 0.12 | 20 ± 5 |  |  |
| COc1cccc(Cc2cc(C)nn(C(C)C(=O)Nc3cccc(F)c3)c2=O)c1 (stereo not shown) [MIPS-0008745] | 50 ± 4 | 5.12 ± 0.38 |  |  |  |
| COc1cccc(Cc2cc(C)nn(C(C)C(=O)Nc3ccc(F)cc3)c2=O)c1 (stereo not shown) [MIPS-0008749] | 57 ± 2 | 5.07 ± 0.18 |  |  |  |
| COc1cccc(Cc2cc(C)nn(C(C)C(=O)Nc3ccc4c(c3)OCO4)c2=O)c1 (stereo not shown) [MIPS-0008750] | 74 ± 7 |  | 26 ± 6 | 5750 nM |  |
| COc1ccc(Cc2cc(C)nn(C(C)C(=O)Nc3ccc(Br)cc3)c2=O)cc1 (stereo not shown) [MIPS-0008853] | 81 ± 6 | 5.58 ± 0.14 | 26 ± 6 |  |  |
| COc1ccccc1Cc1cc(C)nn(C(C)C(=O)Nc2ccc(Br)cc2)c1=O (stereo not shown) [MIPS-0008854] | 76 ± 3 | 6.07 ± 0.11 | 26 ± 9 |  |  |
| COc1cccc(Cc2cc(C)nn(C(C)C(=O)Nc3ccc4c(c3)OCO4)c2=O)c1 (stereo not shown) [MIPS-0008856] | 64 ± 4 |  | 19 ± 3 | 12600 nM |  |
| Cc1cc(Cc2ccc(F)cc2)c(=O)n(C(C)C(=O)Nc2ccc(Br)cc2)n1 (stereo not shown) [MIPS-0008857] | 89 ± 1 | 5.74 ± 0.13 | 5 ± 1 |  |  |
| Cc1cc(Cc2ccccc2F)c(=O)n(C(C)C(=O)Nc2ccc(Br)cc2)n1 (stereo not shown) [MIPS-0008858] | 91 ± 8 | 5.75 ± 0.12 | 8 ± 2 |  |  |
| Cc1cc(Cc2cccc(F)c2)c(=O)n(C(C)C(=O)Nc2ccc(Br)cc2)n1 (stereo not shown) [MIPS-0008859] | 93 ± 7 | 5.68 ± 16 | 18 ± 3 |  |  |
| COc1cccc(Cc2cc(C)nn(Cc3ccc(Cl)cc3)c2=O)c1OC [MIPS-0010394] | 82 ± 5 |  | 38 ± 2 | 170 nM | EC50 (hFPR1 [1]; Table 9, read-out: potency (pEC50) pERK1/2, hFPR1-FlpInCHO cells in vitro (converted)): 170 nM; Bias (away from Ca2+i), hFPR1-FlpInCHO cells in vitro (hFPR1 [3]): Slight; EC50 (hFPR1 [2]; Table 9, read-out: potency (pEC50) Ca^2+i, hFPR1-FlpInCHO cells in vitro (converted)): 407 nM; EC50 (hFPR1 [2]; [8]): 407 nM; Tmax [4]: 0.3 h; half-life [4]: 9.5 h |
| CCc1ccc(NC(=O)Cn2nc(C)cc(Cc3ccccc3OC)c2=O)cc1 [MIPS-0014051] | 79 ± 9 | 5.30 ± 0.12 |  |  |  |
| COc1ccc(NC(=O)Cn2nc(C)cc(Cc3c(OC)cccc3OC)c2=O)cc1 [MIPS-0014071] | 78 ± 2 |  | 48 ± 7 | 2630 nM | EC50 (hFPR1 [2]; [8]): 2820 nM |

The next lines start with results.

| ERK Rmax (hFPR1 [1]; Table 10, receptor not given) | ERK pEC50 (hFPR1 [1]; [5]) | Calcium Rmax (hFPR1 [2]; [6]) | EC50 (hFPR1 [1]; [7]) | SMILES | further results |
| --- | --- | --- | --- | --- | --- |
| 77 ± 3 | 5.00 ± 0.37 | 19 ± 2 |  | COc1ccc(OC)c(Cc2cc(C)nn(CC(=O)Nc3ccc(Cl)cc3)c2=O)c1 [MIPS-0010384] | EC50 (hFPR1 [2]; [8]): 6030 nM |
| 81 ± 2 | 5.91 ± 0.13 | 17 ± 3 |  | COc1ccccc1Cc1cc(C)nn(CC(=O)Nc2ccc(Cl)cc2)c1=O [MIPS-0010392] | EC50 (hFPR1 [2]; [8]): 18200 nM |
| 74 ± 3 |  | 18 ± 8 | 1020 nM | Cc1cc(Cc2ccccn2)c(=O)n(CC(=O)Nc2ccc(Cl)cc2)n1 [MIPS-0010397] |  |
| 64 ± 6 | 5.10 ± 0.23 | 13 ± 3 |  | COc1ccc(NC(=O)Cn2nc(C)cc(Cc3ccccc3OC)c2=O)cc1 [MIPS-0014052] |  |
| 78 ± 13 |  |  | 1910 nM | Cc1cc(Cc2cccc3c2OCCO3)c(=O)n(CC(=O)Nc2ccc(Cl)cc2)n1 [MIPS-0014053] |  |
| 94 ± 11 |  | 11 ± 2 | 1780 nM | COc1cccc(Cc2cc(C)nn(CC(=O)Nc3ccc(Cl)cc3)c2=O)n1 [MIPS-0014055] |  |
| 91 ± 4 |  | 45 ± 10 | 603 nM | Cc1cc(Cc2ccccn2)c(=O)n(CC(=O)Nc2ccc(Cl)cc2)n1 [MIPS-0014057] | EC50 (hFPR1 [2]; [8]): 4570 nM |
| 87 ± 1 |  | 32 ± 1 | 1150 nM | COc1ccccc1Cc1cc(C)nn(CC(=O)Nc2ccc(C)cc2)c1=O [MIPS-0014058] | EC50 (hFPR1 [2]; [8]): 5010 nM |
